Where “and” joins values, the source holds several entries; their conditions need not be identical. Identical values can stand only once.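 Cells were grown in 96-well plates and exposed to each compound for 48 hours at five concentrations; endpoints were interpolated linearly between bracketing concentrations, or set to the highest concentration if not reached. GI50: concentration for 50% inhibition of growth. At the TGI there is no net growth.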
Experiments:
Assay in all cases: growth of human tumour cells (NCI), 48 h
A549 NSCLC = tested on: A549 NSCLC
CCRF-CEM leukemia = tested on: CCRF-CEM leukemia
HOP-92 NSCLC = tested on: HOP-92 NSCLC
KM20L2 colon = tested on: KM20L2 colon
SK-MEL-5 melanoma = tested on: SK-MEL-5 melanoma
A498 renal = tested on: A498 renal
SF-295 CNS = tested on: SF-295 CNS
LXFL 529 NSCLC = tested on: LXFL 529 NSCLC
DU-145 prostate = tested on: DU-145 prostate
NCI/ADR-RES ovarian = tested on: NCI/ADR-RES ovarian

Row | Structure (SMILES) | TGI (A549 NSCLC) | TGI (CCRF-CEM leukemia) | TGI (HOP-92 NSCLC) | TGI (KM20L2 colon) | TGI (SK-MEL-5 melanoma) | TGI (A498 renal) | TGI (SF-295 CNS) | TGI (LXFL 529 NSCLC) | GI50 (A498 renal) | GI50 (A549 NSCLC) | GI50 (CCRF-CEM leukemia) | GI50 (DU-145 prostate) | TGI (DU-145 prostate) | GI50 (HOP-92 NSCLC) | GI50 (NCI/ADR-RES ovarian) | TGI (NCI/ADR-RES ovarian) | GI50 (SF-295 CNS) | GI50 (SK-MEL-5 melanoma)
1 | CO/C=C/c1cc2c(cc1C(OC)OC)OCO2 | > 100 µM | > 100 µM | > 100 µM | > 100 µM | 42.8 µM |  |  |  |  |  |  |  |  |  |  |  |  | 
2 | Cn1cc(C(=O)/C(Cl)=C(\Cl)C(=O)O)c2ccccc21 | > 100 µM | > 100 µM |  | > 100 µM | > 100 µM | > 100 µM | > 100 µM |  |  |  |  |  |  |  |  |  |  | 
3 | COC1=CC(C)C2C[C@H]3O[C@H](O)C[C@H]4C(C)C(=O)C(O)C([C@@]2(C)C1=O)[C@@]34C (some centres undefined) | > 100 µM | > 100 µM | > 100 µM |  | > 100 µM | > 100 µM | > 100 µM | > 100 µM |  |  |  |  |  |  |  |  |  | 
4 | C=C1C(=O)O[C@H]2[C@H]1CC/C(Cn1cc(Cn3ccc4cc(Cl)ccc43)nn1)=C\CC[C@@]1(C)O[C@@H]21 | 24.8 µM | 1.18 µM | 1.74 µM |  | 3.32 µM | 11.7 µM | 17 µM |  | 3.39 µM | 10.2 µM | 0.338 µM | 1.55 µM | 2.89 µM | 0.489 µM | 2.54 µM | 9.09 µM | 3.98 µM | 1.73 µM
5 | Nc1nc(F)nc2c1ncn2C1OC(COP(=O)(O)O)C(O)C1O (centres undefined) | 511 µM | 202 µM | 71.8 µM | > 1250 µM | 406 µM | 694 µM | 917 µM |  |  |  |  |  | 124 µM |  |  | 106 µM |  | 
6 | C=C1C(=O)O[C@H]2[C@H]1CC/C(COC(=O)N[C@@H](Cc1c[nH]c3ccccc13)C(=O)OC)=C\CC[C@@]1(C)O[C@@H]21 | 24.3 µM | 3.18 µM | 2.98 µM |  | 3.26 µM | 22.3 µM | 21.6 µM |  | 10.3 µM | 9.94 µM | 0.621 µM | 1.08 µM | 2.44 µM | 1.42 µM | 6.78 µM | 27.3 µM | 9.4 µM | 1.68 µM
7 | CCSc1nc(=S)[nH]c2[nH]ncc12 | > 100 µM | > 100 µM | > 100 µM |  | > 100 µM | 72.7 µM | > 100 µM |  | 21.6 µM | > 100 µM | 59 µM | > 100 µM | > 100 µM | 91.6 µM | > 100 µM | > 100 µM | > 100 µM | 59.1 µM
8 | CN(C)c1ccc2[nH]c(O)c(C=Nc3ccc(S(N)(=O)=O)cc3)c2c1 | > 25 µM | > 25 µM | > 25 µM |  | > 25 µM | > 25 µM | > 25 µM |  | > 25 µM | > 25 µM | 17.9 µM | > 25 µM | > 25 µM | > 25 µM | > 25 µM | > 25 µM | > 25 µM | > 25 µM
9 | O=C1C=CC(=O)N1c1ccc2c(c1)Cc1cc(NC(=O)C(F)(F)F)ccc1-2 | 34.5 µM | 16.9 µM | 33.1 µM |  | > 100 µM | 48.4 µM | > 100 µM |  |  |  |  |  | 30.5 µM |  |  | > 75.7 µM |  | 
10 | Cc1cc(Nc2ncc(Cl)c(Nc3ccccc3S(=O)(=O)C(C)C)n2)c(OC(C)C)cc1C1CCNCC1 | 2.69 µM | 4.18 µM | 1.55 µM |  | 2.73 µM | 6.83 µM | 2.81 µM and 3.16 µM |  | 1.88 µM | 1.34 µM | 1.87 µM | 1.41 µM and 1.53 µM and 1.29 µM | 2.79 µM and 2.88 µM and 2.55 µM | 0.346 µM | 1.52 µM | 3.4 µM | 1.43 µM and 1.63 µM | 1.4 µM
11 | CCC[C@H](Nc1nc(-c2ccc(NC(=O)NCC)c(OC)c2)ncc1C)c1cccnc1 | > 36.2 µM |  | 12.5 µM |  | 0.0912 µM | 0.864 µM | 0.0678 µM |  | 0.0322 µM | 0.0378 µM | 0.032 µM | 0.028 µM | 0.0753 µM | 0.236 µM | 0.214 µM | 9.97 µM | 0.0253 µM | 0.0273 µM
12 | CC(=O)NC(Cc1c[nH]c2ccccc12)C(=O)O (centres undefined) | > 100 µM | > 100 µM | > 100 µM |  | > 100 µM | > 100 µM | > 100 µM |  |  |  |  |  | > 100 µM |  |  | > 100 µM |  | 
13 | COc1ccc(C2c3cc4c(cc3OC(O)(CO)C2C(=O)O)OCO4)c(OC)c1OC (centres undefined) (tested in a mixture with another compound) | > 100 µM | > 100 µM | > 100 µM | > 100 µM | > 100 µM |  | > 100 µM |  |  |  |  |  |  |  |  |  |  | 
14 | O=C(/C=C/C12c3ccccc3C(c3ccccc31)C1C(=O)NC(=O)C12)c1ccco1 (centres undefined) | 10.1 µM | 9.57 µM | 4.54 µM |  | 3.28 µM | 6.05 µM | 11.6 µM |  | 2.42 µM | 3.25 µM | 1.24 µM | 2.98 µM | 11.9 µM | 1.74 µM | 2.38 µM | 6.42 µM | 3.33 µM | 1.77 µM
15 | N#Cc1c(N)nc(N2CCOCC2)c(C#N)c1-c1cccc(O)c1 | > 100 µM | > 100 µM | > 100 µM |  | > 100 µM | 58.3 µM | > 100 µM |  | 14.8 µM | > 100 µM | > 100 µM | > 100 µM | > 100 µM | 37.6 µM | > 100 µM | > 100 µM | > 100 µM | > 100 µM
16 | CN1CCN(Cc2ccc(NC(=O)c3[nH]ncc3Nc3ccnc4ccsc34)cc2)CC1 | 14.5 µM | 9.26 µM | 8.92 µM |  | 11.5 µM | 4.87 µM | 14.2 µM |  | 1.64 µM | 3.04 µM | 2.45 µM | 2.17 µM | 11.6 µM | 3.89 µM | 15.7 µM | > 100 µM | 3.73 µM | 2.48 µM
17 | COc1cc(N)ccc1Nc1c2ccccc2nc2ccccc12 | 24.9 µM | > 100 µM | 23 µM |  | 21.5 µM | 22.4 µM | 30.1 µM |  | 6.28 µM | 4.32 µM | 3.73 µM | 3.79 µM | 14.8 µM | 4.59 µM | 15.4 µM | 45.3 µM | 12 µM | 7.52 µM
18 | Cc1cc(Nc2nc(N3CCOCC3)nc3ccccc23)n[nH]1 | > 100 µM | > 100 µM | 62.8 µM |  | > 100 µM | 5.33 µM | 74.4 µM |  | 1.01 µM | 5.2 µM | 4.03 µM | 13.3 µM | > 100 µM | 4.22 µM | 18.2 µM | > 100 µM | 6.19 µM | 18.8 µM

Reference: PubChem BioAssay (NCI)
